The values that follow come from patent US7790762B2, “Compounds and methods for thiol-containing compound efflux and cancer treatment” (National Jewish Health, priority 2002, dated 2010).

For test [1], the system named is epithelial cells. In words: Effects of compounds on extracellular GSH transport (Table 3). As to conditions: Epithelial cell, read-out: % Increase Over Control (extracellular GSH). It is filed as cell-based.
Test [2] is described as follows: Epithelial lining fluid (ELF) GSH concentration in dexamethasone treated mice. In kind it is in vivo, Wild type (C57/B6) mice. As to conditions: 1 mg/kg intraperitoneal daily for two days, BALF at 48 hours; mean±standard error. The method, then: FIG. 17 Dexamethasone-Induced Changes in Epithelial Lining Fluid (ELF) Glutathione (GSH) Concentrations. Wild type (C57/B6) mice were given a 1 mg/kg dexamethasone (DEX) injection (intraperitoneal) daily for two days. Bronchoalveolar lavage fluid (BALF) was obtained at 48 hours after the first initial dose and GSH concentrations determined. BALF was obtained through a tracheal canula with a single 2.0 mL aliquots of phosphate-buffered saline (pH 7.4) that was instilled into the lung and withdrawn only once. The BALF was centrifuged at 4000×g to remove cells (i.e., alveolar macrophages). The cell-free BALF was acidified with metaphosphoric acid to a final concentration of 1% metaphosphoric acid and centrifuged at 20,000×g to pellet the precipitated proteins. GSH concentrations were determined by HPLC coupled with electrochemical detection. ELF concentrations of GSH were calculated from BALF concentrations multiplied by a dilution factor derived from the difference in serum and BALF urea concentrations. […] Data are shown as the mean±standard error for n≧4 with significance attained at p≦0.05.
Serum and BALF Urea Concentrations. […] ELF concentrations are then calculated by multiplying the BALF concentrations by the dilution factor. Urea concentrations in the samples are determined using a commercially available reagent (Sigma Diagnostics 66-20; St. Louis, Mo.).

For test [3], the system named is HL-60 cells. In words: Intracellular GSH levels by HPLC-EC in HL-60 cells. In kind it is cell-based, human. To be noted: Homo sapiens; HL-60, 25 μM, 24 hours treatment; read-out: Int. GSH % con. The gist of the method:
(§1)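 Cultured cells were lysed in water with 40 μM digitonin for 30 min at room temperature, acidified to 1% meta-phosphoric acid, sonicated and centrifuged. GSH in the supernatant was measured by HPLC with coulometric electrochemical detection at +0.75 V vs. H/Pd.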

Test [4] deals with PC-3 cells. In words: Cytotoxicity as LDH release in PC-3 cells. In kind it is cell-based, human. As to conditions: Homo sapiens; PC-3, 50 μM, 48 hours treatment; read-out: LDH rel. % con. The gist of the method:
(§2)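 Cells in 24-well plates at 37° C, 5% CO2 (A549 in F12, PC-3 in F12K, HL-60 in IMDM, with FBS). LDH in medium and lysates measured by NADH consumption at 340 nm with 0.24 mM NADH and 9.8 mM pyruvate, 30° C; % release = supernatant/(supernatant+lysate)×100.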
(In general: LDH leaks from cells whose membrane has failed.)

Test [5] concerns PC-3 cells. In words: Intracellular GSH levels by HPLC-EC in PC-3 cells. It is filed as cell-based, human. To be noted: Homo sapiens; PC-3, 25 μM, 24 hours treatment; read-out: Int. GSH % con. The gist of the method: as §1
The subject of test [6] is epithelial cells. Put plainly: Extracellular GSH transport, Transwell Studies (Table 3). In kind it is cell-based. As to conditions: 100 μM.
In test [7] the test system is A549 cells. Put plainly: Cytotoxicity as LDH release in A549 cells. As to conditions: Homo sapiens; A549, 50 μM, 48 hours treatment; read-out: LDH rel. % con. In kind it is cell-based, human. In short, it runs like this:
as §2

The test system of test [8] is A549 cells. Put plainly: Intracellular GSH levels by HPLC-EC in A549 cells. It is filed as cell-based, human. As to conditions: Homo sapiens, A549, 25 μM. In short, it runs like this: as §1
Test [9] deals with HL-60 cells. In words: Cytotoxicity as LDH release in HL-60 cells. In kind it is cell-based, human. As to conditions: Homo sapiens; HL-60, 25 μM, 48 hours treatment; read-out: LDH rel. % con. The gist of the method: as §2
A further test has as its system P-gp. To be noted: single dose; renal basement membrane, liver and intestine; cited from earlier work.

Like-named read-outs stand apart in the source and are kept apart here. Marks after values point to notes of the source that are not given here. Where only a bound is given, the exact number is not on record here.

Take `C[C@@H]1C[C@H]2[C@@H]3CCC4=CC(=O)C=C[C@]4(C)[C@@]3(F)[C@@H](O)C[C@]2(C)[C@@]1(O)C(=O)CO` [Dexamethasone, 9-fluoro-11 b,17,21-trihydroxy-16a-methylpregna-1,4-diene-3,20-dione, reference compound]: the activation at 50 µM in the test on epithelial cells [1] (50 μM) is 178%. Besides, in [2], the “ELF concentrations of GSH” value is 75.3 ± 12.0 µM.

As for `COc1ccc2c(c1)c(CC(=O)O)c(C)n2C(=O)c1ccc(Cl)cc1` [Indomethacin, 1-(4-chlorobenzoyl)-5-methoxy-2-methyl-1H-indole-3-acetic acid, reference compound], the activity at 25 µM in the test on HL-60 cells [3] is 49%; in the test with PC-3 cells [5] it was 75%; in the test with A549 cells [8] (2 h, read-out: Intracellular GSH levels, % compared to control) it was 71.4 ± 2.8%; with A549 cells [8] (4 h, read-out: Intracellular GSH levels, % compared to control), 7.8 ± 1.2%; with A549 cells [8] (24 hours treatment, read-out: Int. GSH % con.) it was under 5%. For the same compound, the LDH release, % of control at 50 µM is 122% in the test with PC-3 cells [4] and 251% in the test on A549 cells [7]. Also, in the test on epithelial cells [1] (100 μM), the activation at 100 µM was found to be 235%. The “% Increase Over Control (extracellular GSH)” value in the test on epithelial cells [6] is recorded as 136 ^a %. Besides, the LDH release, % of control at 25 µM in the test with HL-60 cells [9] is 126%.

Consider `N.N.[Cl][Pt][Cl]` [cisplatin, cis-dichlorodiammne platinum (II)], for which the “induction of P-gp” value in the test with P-gp is reported as 200-300 ×.
